In patent US8268817B2, “Substituted oxazole ketone modulators of fatty acid amide hydrolase” (The Scripps Research Institute, priority 2006, dated 2012):
One block for each compound: values may come before it.

Tests used:
[1] = target: T1, FAAH (solubilized liver plasma membrane extract) (Rattus norvegicus, UniProt P97612); test: FAAH enzyme assay, hydrolysis of 14C-oleamide to oleic acid; format: biochemical; details: 14C-oleamide substrate, pH 9.0, 20-23° C., Dixon method
T1 construct: using a solubilized liver plasma membrane extract containing FAAH; from tissue; host or cells: liver (plasma membrane extract, solubilized)
T1 sequence (P97612 1-579): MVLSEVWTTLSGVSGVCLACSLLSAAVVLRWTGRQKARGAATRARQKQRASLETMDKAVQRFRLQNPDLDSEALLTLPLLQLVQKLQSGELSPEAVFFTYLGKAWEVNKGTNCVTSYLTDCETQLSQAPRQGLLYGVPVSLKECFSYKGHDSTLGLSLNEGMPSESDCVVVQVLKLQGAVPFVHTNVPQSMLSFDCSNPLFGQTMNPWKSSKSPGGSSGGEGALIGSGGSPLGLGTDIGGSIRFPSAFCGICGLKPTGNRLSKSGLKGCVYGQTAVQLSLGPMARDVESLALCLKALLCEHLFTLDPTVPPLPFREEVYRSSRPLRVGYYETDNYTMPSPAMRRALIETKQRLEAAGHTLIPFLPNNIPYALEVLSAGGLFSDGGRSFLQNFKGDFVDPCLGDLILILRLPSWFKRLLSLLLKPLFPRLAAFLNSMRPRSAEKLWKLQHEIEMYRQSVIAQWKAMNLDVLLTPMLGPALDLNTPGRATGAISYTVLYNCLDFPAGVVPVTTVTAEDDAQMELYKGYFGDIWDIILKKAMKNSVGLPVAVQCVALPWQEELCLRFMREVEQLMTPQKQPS
Description: K; values were determined by the Dixon. Method (x-intercepts of weighted linear fits of [I] versus 1/rate plots at constant substrate concentration, which were converted to Ki values using the formula Ki=−xint/[1+[S]/Km]).

[2] = rats; cited from earlier work
[3] = rats; cited from earlier work; remark: listed apart in the source
[4] = rat; cited from earlier work
[5] = model of multiple sclerosis; cited from earlier work
[6] = rats; cited from earlier work; remark: listed apart in the source
[7] = rats; cited from earlier work; remark: listed apart in the source
FAAH = target: T2, FAAH (Homo sapiens, UniProt O00519); details: cited from earlier work
T2 sequence (O00519 1-579): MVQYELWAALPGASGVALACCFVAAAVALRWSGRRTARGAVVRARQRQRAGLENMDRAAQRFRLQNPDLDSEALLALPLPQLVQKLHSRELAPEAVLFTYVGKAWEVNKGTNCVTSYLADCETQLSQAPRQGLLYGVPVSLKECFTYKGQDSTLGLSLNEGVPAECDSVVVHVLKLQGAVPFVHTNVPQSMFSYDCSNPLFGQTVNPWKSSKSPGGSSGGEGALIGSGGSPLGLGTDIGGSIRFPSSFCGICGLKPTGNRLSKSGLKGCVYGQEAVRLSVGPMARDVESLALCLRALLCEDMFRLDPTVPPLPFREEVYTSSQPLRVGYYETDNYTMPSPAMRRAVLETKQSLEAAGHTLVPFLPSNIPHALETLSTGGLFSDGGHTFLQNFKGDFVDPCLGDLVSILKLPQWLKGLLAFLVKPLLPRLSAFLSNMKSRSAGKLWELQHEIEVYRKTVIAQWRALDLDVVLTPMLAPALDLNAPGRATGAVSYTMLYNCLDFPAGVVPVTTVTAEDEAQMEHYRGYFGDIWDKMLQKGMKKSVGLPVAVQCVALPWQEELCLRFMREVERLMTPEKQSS

[8] = rats; cited from earlier work; remark: listed apart in the source

Structure (SMILES): O=C(CCCCCCc1ccccc1)c1ncc(C(=O)N2CCCCC2)o1 [Example 5, 7-Phenyl-1-(5-(piperidine-1-carbonyl)oxazol-2-yl)heptan-1-one]
Ki [1]: 8 nM

Structure (SMILES): NC(=O)c1cccc(-c2cccc(OC(=O)NC3CCCCC3)c2)c1 [URB-597]
efficacy in zero plus maze model of anxiety [2]: efficacy
analgesic efficacy in hot plate test [3]: analgesic efficacy
analgesic efficacy in formalin test [4]: analgesic efficacy

Structure (SMILES): CCCCCCCCCCCCCCCCS(=O)(=O)F [AM374]
effect on spasticity in CREAE mice [5]: significantly reduce spasticity

Structure (SMILES): Cc1nc(-c2ccccc2)c(-c2ccccc2)n1CCCCCCNC(=O)Oc1ccccc1F [BMS-1]
analgesic effect in Chung spinal nerve ligation model [6]: analgesic effect
analgesic effect in Hargraves test [7]: analgesic effect

Structure (SMILES): O=C(CCCCCCc1ccccc1)c1ncc(-c2ccccn2)o1 [OL-135]
analgesic efficacy in hot plate test [3]: analgesic activity
inhibition of FAAH (FAAH): potent inhibitor
analgesic activity in tail emersion test [8]: analgesic activity

Structure (SMILES): O=C(CCCCCCc1ccccc1)c1ncc(C(=O)N2CCOCC2)o1 [Example 4, 1-(5-(Morpholine-4-carbonyl)oxazol-2-yl)-7-phenylheptan-1-one]
Ki [1]: 24 nM

Further lines, results first:

Ki [1]: 80 nM
Structure (SMILES): CN1CCN(C(=O)c2cnc(C(=O)CCCCCCc3ccccc3)o2)CC1 [Example 7, 1-(5-(4-Methylpiperazine-1-carbonyl)oxazol-2-yl)-7-phenylheptan-1-one]

Ki [1]: 10 nM
Structure (SMILES): O=C(CCCCCCc1ccccc1)c1ncc(C(=O)N2CCSCC2)o1 [Example 6, 7-Phenyl-1-(5-(thiomorpholine-4-carbonyl)oxazol-2-yl)heptan-1-one]

Ki [1]: 7 nM
Structure (SMILES): CNC(=O)c1cnc(C(=O)CCCCCCc2ccccc2)o1 [Example 8, N-Methyl-2-(7-phenylheptanoyl)oxazole-5-carboxamide]

Ki [1]: > 2 nM
Structure (SMILES): O=C(CCCCCCc1ccccc1)c1ncc(S(=O)(=O)C(F)(F)F)o1 [Example 22, 7-Phenyl-1-(5-(trifluoromethylsulfonyl)oxazol-2-yl)heptan-1-one]
